Experimental data from patent US9394284B2, “Compounds act at multiple prostaglandin receptors giving a general anti-inflammatory response” (Allergan, Inc., priority 2010, dated 2016).

Columns and labels:
Type in all cases: cell-based
[1] = biological target: T1, human prostanoid DP1 receptor (Homo sapiens, UniProt Q13258); assay: FLIPR Ca2+ signaling antagonist assay, DP1 receptor stable cell line; conditions: HEK-293 EBNA stable cell line; standard agonist BW 245C; NA = inactive (no antagonism or Kb 10,000 nM); PAg, Ag not defined
T1 construct: expressed in transfected cells
T1 sequence (Q13258 1-359): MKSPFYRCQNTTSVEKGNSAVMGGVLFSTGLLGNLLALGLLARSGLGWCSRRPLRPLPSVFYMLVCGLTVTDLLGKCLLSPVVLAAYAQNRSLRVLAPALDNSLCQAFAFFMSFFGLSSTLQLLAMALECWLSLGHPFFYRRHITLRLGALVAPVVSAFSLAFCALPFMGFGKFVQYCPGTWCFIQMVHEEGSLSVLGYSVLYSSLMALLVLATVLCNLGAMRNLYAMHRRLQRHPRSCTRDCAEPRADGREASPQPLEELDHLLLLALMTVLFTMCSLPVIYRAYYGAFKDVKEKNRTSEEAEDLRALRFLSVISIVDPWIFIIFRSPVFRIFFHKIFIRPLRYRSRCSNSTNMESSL
Method: (§1) The above compounds were tested for PG antagonist activity as follows using human recombinant prostanoid receptor (DP1, EP1-4, FP, IP and TP) stable cell lines:
(§2) In order to measure the response of Gs and Gi coupled prostanoid receptors as a Ca^2+ signal, chimeric G protein cDNAs were used. Stable cell lines over-expressing human prostanoid DP1, EP1-4, FP, IP, and TP receptors were established as follows:
(§3) Briefly, human prostanoid DP1, EP2, and EP4 receptor cDNAs were co-transfected with chimeric Gqs cDNA containing a haemagglutanin (HA) epitope; human prostanoid EP3 receptors were co-transfected with chimeric Gqi-HA; human EP1, FP, IP, and TP receptor cDNAs were expressed with no exogenous G-proteins. Gqs and Gqi chimeric cDNAs (Molecular Devices, Sunnyvale, Calif., U.S.A.), as well as cDNAs of prostanoid receptors, were cloned into a pCEP4 vector with a hygromycin B selection marker. Transfection into HEK-293 EBNA (Epstein-Barr virus nuclear antigen) cells was achieved by the FuGENE 6 transfection Reagent (Roche Applied Science, Indianapolis, Ind., USA). Stable transfectants were selected according to hygromycin resistance. Because Gqs and Gqi contained an HA epitope, G-protein expression was detected by Western blotting analysis using anti-mouse HA monoclonal antibody and horseradish peroxidase (HRP)-conjugated secondary antibody, while functional expression of prostanoid receptors was detected by FLIPR screening (Matias et al., 2004). These stable cell lines were validated using previously published antagonists at 10 μM against serial dilutions of standard agonists by FLIPR functional assays for Ca^2+ Signaling (as described below).
(§4) Ca^2+ signaling studies were performed using a FLIPR TETRA system (Molecular Devices, Sunnyvale, Calif., USA) in the 384-format. This is a high-throughput instrument for cell-based assays to monitor Ca^2+ signaling associated with GPCRs and ion channels. Cells were seeded at a density of 5×10^4 cells/well in BioCoat poly-D-lysine coated, black wall, clear bottom 384-well plates (BD Biosciences, Franklin lakes, NJ, USA) and allowed to attach overnight in an incubator at 37° C. The cells were then washed twice with HBSS-HEPES buffer (Hanks' balanced salt solution without bicarbonate and phenol red, 20 mM HEPES, pH 7.4) using an ELx405 Select CW Microplate Washer (BioTek, Winooski, Vt., USA). After 60 min of dye-loading in the dark using the Ca^2+-sensitive dye Fluo-4AM (Invitrogen, Carlsbad, Calif., USA), at a final concentration of 2×10^−6M, the plates were washed 4 times with HBSS-HEPES buffer to remove excess dye and leaving 50 μl of buffer in each well. The plates were then placed in the FLIPR TETRA instrument and allowed to equilibrate at 37° C. AGN-211377 was added in a 25 μl volume to each well to give final concentrations of 0.1 μM, 0.3 μM, 1 μM, 3 μM, 10 μM, and 30 μM; or 0.067 μM, 0.1 μM, 0.2 μM, 0.3 μM, 0.67 μM, and 1 μM for cells over-expressing TP receptors. After 4.5 minutes, a 7-point serial dilution of the standard agonist for the corresponding receptor, in a 25 μl volume was injected at the final concentrations from 10^−11M to 10^−5M in 10-fold serial dilution increments for cells expressing human recombinant DP1, EP1, EP2, EP3, EP4, FP, and IP receptors. The dose range for the standard agonist for human recombinant TP receptors was from 10^−12 M to 10^−6 M. HBSS-HEPES buffer was used as the negative control for the standard agonists. Cells were excited with LED (light emitting diode) excitation at 470-495 nm and emission was measured through an emission filter at 515-575 nm. Assay plates were read for 3.5 minutes using the FLIPR^TETRA. The peak increase in fluorescence intensity was recorded for each well. On each plate, negative controls, dose response of positive controls, and co-treatments of antagonist-agonist for each dose were in triplicates.
(§5) Standard agonists were as follows: DP=BW 245C, EP1-EP4=PGE2, FP=17-phenyl-PGF2α, IP=Cicaprost, and TP=U-46619. […]

[2] = biological target: T2, human prostanoid TP receptor (Homo sapiens, UniProt P21731); assay: FLIPR Ca2+ signaling antagonist assay, TP receptor stable cell line; conditions: HEK-293 EBNA stable cell line; standard agonist U-46619; NA = inactive (no antagonism or Kb 10,000 nM); PAg, Ag not defined
T2 construct: expressed in transfected cells
T2 sequence (P21731 1-343): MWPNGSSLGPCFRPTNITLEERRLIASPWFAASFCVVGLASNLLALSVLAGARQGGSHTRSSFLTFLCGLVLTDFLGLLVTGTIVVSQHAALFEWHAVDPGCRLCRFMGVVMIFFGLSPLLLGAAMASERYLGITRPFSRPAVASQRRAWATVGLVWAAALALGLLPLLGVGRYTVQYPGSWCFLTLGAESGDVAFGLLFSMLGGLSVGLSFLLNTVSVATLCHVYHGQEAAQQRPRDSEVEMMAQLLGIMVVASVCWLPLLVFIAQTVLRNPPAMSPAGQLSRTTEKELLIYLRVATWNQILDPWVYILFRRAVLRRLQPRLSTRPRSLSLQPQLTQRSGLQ
Method: as §1, §2, §3, §4, §5

[3] = biological target: T3, human prostanoid EP1 receptor (Homo sapiens, UniProt P34995); assay: FLIPR Ca2+ signaling antagonist assay, EP1 receptor stable cell line; conditions: HEK-293 EBNA stable cell line; standard agonist PGE2; NA = inactive (no antagonism or Kb 10,000 nM); PAg, Ag not defined
T3 construct: expressed in transfected cells
T3 sequence (P34995 1-402): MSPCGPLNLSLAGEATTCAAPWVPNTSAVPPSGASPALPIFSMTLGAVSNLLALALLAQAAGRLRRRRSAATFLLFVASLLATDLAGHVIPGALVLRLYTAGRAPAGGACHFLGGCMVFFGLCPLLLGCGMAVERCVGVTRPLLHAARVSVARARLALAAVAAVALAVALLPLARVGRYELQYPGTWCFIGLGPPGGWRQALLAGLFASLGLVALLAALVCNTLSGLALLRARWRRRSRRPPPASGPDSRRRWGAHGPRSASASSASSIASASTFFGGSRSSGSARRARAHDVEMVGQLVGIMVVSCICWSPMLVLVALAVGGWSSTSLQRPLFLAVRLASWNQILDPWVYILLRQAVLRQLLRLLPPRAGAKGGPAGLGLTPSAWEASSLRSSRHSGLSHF
Method: as §1, §2, §3, §4, §5

[4] = biological target: T4, human prostanoid FP receptor (Homo sapiens, UniProt P43088); assay: FLIPR Ca2+ signaling antagonist assay, FP receptor stable cell line; conditions: HEK-293 EBNA stable cell line; standard agonist 17-phenyl-PGF2α; NA = inactive (no antagonism or Kb 10,000 nM); PAg, Ag not defined
T4 construct: expressed in transfected cells
Method: as §1, §2, §3, §4, §5

[5] = biological target: T5, human prostanoid IP receptor (Homo sapiens, UniProt P43119); assay: FLIPR Ca2+ signaling antagonist assay, IP receptor stable cell line; conditions: HEK-293 EBNA stable cell line; standard agonist Cicaprost; NA = inactive (no antagonism or Kb 10,000 nM); PAg, Ag not defined
T5 construct: expressed in transfected cells
Method: as §1, §2, §3, §4, §5

[6] = biological target: T6, human prostanoid EP4 receptor (Homo sapiens, UniProt P35408); assay: FLIPR Ca2+ signaling antagonist assay, EP4 receptor stable cell line; conditions: HEK-293 EBNA stable cell line; standard agonist PGE2; NA = inactive (no antagonism or Kb 10,000 nM); PAg, Ag not defined
T6 construct: expressed in transfected cells
Method: as §1, §2, §3, §4, §5

T4 sequence (P43088 whole entry): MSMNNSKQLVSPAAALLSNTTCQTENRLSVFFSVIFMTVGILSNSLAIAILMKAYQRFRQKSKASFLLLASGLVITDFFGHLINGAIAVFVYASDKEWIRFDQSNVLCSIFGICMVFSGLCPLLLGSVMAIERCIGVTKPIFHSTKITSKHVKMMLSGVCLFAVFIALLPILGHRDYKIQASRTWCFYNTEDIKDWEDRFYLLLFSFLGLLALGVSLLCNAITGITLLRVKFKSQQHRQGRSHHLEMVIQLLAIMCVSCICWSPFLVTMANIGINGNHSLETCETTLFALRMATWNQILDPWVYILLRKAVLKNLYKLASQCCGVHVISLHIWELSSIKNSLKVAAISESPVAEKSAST
T5 sequence (P43119 whole entry): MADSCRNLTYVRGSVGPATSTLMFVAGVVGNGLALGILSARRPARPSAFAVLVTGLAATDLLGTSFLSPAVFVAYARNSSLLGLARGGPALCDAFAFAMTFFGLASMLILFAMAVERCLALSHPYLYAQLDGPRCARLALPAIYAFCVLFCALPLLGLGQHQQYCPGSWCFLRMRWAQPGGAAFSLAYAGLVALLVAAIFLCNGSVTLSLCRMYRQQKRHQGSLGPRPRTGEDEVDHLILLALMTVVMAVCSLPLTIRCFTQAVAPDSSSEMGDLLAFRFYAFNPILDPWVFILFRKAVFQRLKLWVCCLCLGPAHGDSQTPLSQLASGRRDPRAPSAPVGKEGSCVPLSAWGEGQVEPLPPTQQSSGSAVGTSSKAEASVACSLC
T6 sequence (P35408 whole entry): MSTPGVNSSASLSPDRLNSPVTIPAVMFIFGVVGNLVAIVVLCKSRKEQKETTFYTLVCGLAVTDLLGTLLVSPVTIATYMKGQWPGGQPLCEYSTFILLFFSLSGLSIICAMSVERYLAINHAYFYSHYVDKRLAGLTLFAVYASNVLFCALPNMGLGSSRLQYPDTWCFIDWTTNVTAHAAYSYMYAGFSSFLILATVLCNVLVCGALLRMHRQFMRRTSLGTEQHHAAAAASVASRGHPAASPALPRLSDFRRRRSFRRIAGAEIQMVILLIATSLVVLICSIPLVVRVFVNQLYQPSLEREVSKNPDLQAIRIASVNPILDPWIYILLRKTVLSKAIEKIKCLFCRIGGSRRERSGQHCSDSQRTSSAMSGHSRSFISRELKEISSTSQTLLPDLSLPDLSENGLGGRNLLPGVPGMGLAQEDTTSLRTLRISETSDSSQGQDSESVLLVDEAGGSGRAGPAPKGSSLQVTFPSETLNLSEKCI

Kb [1] [µM] | TP (FLIPR) Kb [2] | EP1 (FLIPR) Kb [3] | Kb [4] [µM] | IP (FLIPR) Kb [5] | Kb [6] [µM] | Kb [2] [µM] | Kb [3] [µM] | Kb [5] [µM] | SMILES
0.24 | Ag | Ag | 0.2 | Ag | 2.5 | – | – | – | Cc1cc(CCC(=O)O)nn1Cc1cc(Cl)ccc1OCC1CCCCC1 [Example 34, 3-[1-(5-Chloro-2-(cyclohexyl-methoxy)benzyl)-5-methyl-1H-pyrazol-3-yl]-propionic acid]
1.5 | – | – | 1.9 | – | 1.89 | 0.7 | 0.6 | 6.9 | COc1ccc(OCC2CCCC2)c(Cn2nc(CCC(=O)O)cc2C)c1 [Example 53, 3-[1-(2-Cyclopentylmethoxy-5-methoxy-benzyl)-5-methyl-1H-pyrazol-3-yl]-propionic acid]
1.9 | – | – | 0.6 | – | 3.6 | 0.008 | 0.14 | 6 | Cc1cc(CCC(=O)O)nn1Cc1cc(Cl)ccc1OCC1(C(F)(F)F)CCC1 [Example 38, 3-[1-(5-Chloro-2-(1-trifluoromethylcyclobutylmethoxy)benzyl)-5-methyl-1H-pyrazol-3-yl]-propionic acid]
0.4 | – | – | 0.25 | – | 0.3 | 0.002 | 0.014 | 3.1 | Cc1cc(CCC(=O)NS(=O)(=O)C(F)(F)F)nn1Cc1cc(Br)ccc1OCC1CCCC1 [Example 18, N-(3-{1-[5-Bromo-2-(2-cyclopentylmethoxy)-benzyl]-5-methyl-1H-pyrazol-3-yl}-propionyl)-C,C,C-trifluoro-methanesulfonamide]
0.6 | – | – | 3.5 | – | 3.3 | 0.19 | 1.3 | 2.2 | Cc1cc(CCC(=O)O)nn1Cc1cc(Cl)ccc1CCC1CCCC1 [Example 74]
0.45 | – | – | 0.13 | – | 0.08 | 0.12 | 0.03 | 2 | Cc1cc(CC(C)C(=O)O)nn1Cc1cc(Cl)ccc1OCC1CCCC1 (racemic) [Example 70, 3-{1-[5-Chloro-2-(2-cyclopentylmethoxy)-benzyl]-5-methyl-1H-pyrazol-3-yl}-2-methyl-propionic acid]
0.4 | – | PAg | 0.5 | – | 8.1 | 0.5 | – | 2 | CCCCCCCOc1ccc(Br)cc1Cn1nc(CCC(=O)O)cc1C [Example 15, 3-[1-(5-Bromo-2-heptyloxybenzyl)-5-methyl-1H-pyrazol-3-yl]-propionic acid]

The remaining lines, values behind:

SMILES | Kb [1] [µM] | TP (FLIPR) Kb [2] | EP1 (FLIPR) Kb [3] | Kb [4] [µM] | IP (FLIPR) Kb [5] | Kb [6] [µM] | Kb [2] [µM] | Kb [3] [µM] | Kb [5] [µM]
CCC(CC)COc1ccc(C(F)(F)F)cc1Cn1nc(CCC(=O)O)cc1C [Example 46, 3-[1-[2-(2-Ethyl-butoxy)-5-trifluoromethyl-benzyl]-5-methyl-1H-pyrazol-3-yl]-propionic acid] | 0.7 | – | – | 0.24 | – | 0.17 | 0.003 | 0.04 | 2.1
CCC(CC)COc1ccc(C)cc1Cn1nc(CCC(=O)O)cc1C [Example 65, 3-{1-[2-(2-Ethyl-butoxy)-5-methyl-benzyl]-5-methyl-1H-pyrazol-3-yl}-propionic acid] | 0.55 | – | – | 1.3 | – | 0.1 | 0.01 | 0.15 | 2.3
CCC(CC)COc1ccc(Br)cc1Cn1ccc(CCC(=O)O)n1 [Example 59, 3-{1-[5-Bromo-2-(2-ethyl-butoxy)-benzyl]-1H-pyrazol-3-yl}-propionic acid] | 0.3 | – | – | 1.2 | – | 0.1 | 0.001 | 0.16 | 2.7
CCC(C)CCOc1ccc(Br)cc1Cn1nc(CCC(=O)O)cc1C (stereo not drawn) [Example 7, 3-[1-(5-Bromo-2-(3-methyl-pentyloxy)-benzyl)-5-methyl-1H-pyrazol-3-yl]-propionic acid] | 0.49 | – | – | 0.09 | – | 0.6 | 0.002 | 0.09 | 3.5
CCC(C)COc1ccc(Br)cc1Cn1nc(CCC(=O)O)cc1C (stereo not drawn) [Example 10, 3-[1-(5-Bromo-2-(2-methyl-butoxy)-benzyl)-5-methyl-1H-pyrazol-3-yl]-propionic acid] | 0.36 | – | – | 0.07 | – | 0.1 | 0.002 | 0.012 | 4.2
C/C=C(\C)COc1ccc(Br)cc1Cn1nc(CCC(=O)O)cc1C [Example 9, 3-[1-(5-Bromo-2-((E)-2-methyl-but-2-enyloxy)-benzyl)-5-methyl-1H-pyrazol-3-yl]-propionic acid] | 0.75 | – | – | 0.4 | – | 0.6 | 0.002 | 0.011 | 4.8
